In paper PMC3510490, “Structure of Actin-related protein 8 and its contribution to nucleosome binding” (Nucleic Acids Research, 2012):

Columns and labels:
human Arp8 = biological target: T1, human Arp8 (Homo sapiens, UniProt Q9H981); assay: […] phosphate release, TLC; type: biochemical; conditions: 100 µM ATP with 5 nM [γ-32P]ATP (labelled compound), 2 mM MgCl2, pH 7.9, 30 °C; construct (full-length or Δ1-33) not stated
T1 construct: gene ACTR8; monomer

[1] = biological target: T2, Saccharomyces cerevisiae INO80 sub-complex I (Arp8–Arp4–actin-HSA) (Saccharomyces cerevisiae, UniProt P60010+Q12386); assay: […] phosphate release, TLC; type: biochemical; conditions: 100 µM ATP with 5 nM [γ-32P]ATP (labelled compound), 2 mM MgCl2, pH 7.9, 30 °C; active subunit not resolved (Arp8 and/or actin)
T2 construct: co-expressed Arp4, Arp8, actin and His6-Ino80(462-685) in HighFive insect cells; monomeric complex; with Actin-related protein 4; Chromatin-remodeling ATPase INO80

[2] = biological target: T3, Homo sapiens Arp8 (Δ1–33) (Homo sapiens, UniProt Q9H981); assay: X-ray crystal structure, […] Å; conditions: ATP co-purified from expression host, not added; one metal ion (likely Mg2+); nucleotide-binding cleft; pH 6.1
T3 construct: gene ACTR8; N-terminal 8xHis tag cleaved by PreScission protease; E. coli BL21(DE3); monomer

yeast Arp8 = biological target: T4, yeast Arp8 (Saccharomyces cerevisiae, UniProt Q12386); assay: […] phosphate release, TLC; type: biochemical; conditions: 100 µM ATP with 5 nM [γ-32P]ATP (labelled compound), 2 mM MgCl2, pH 7.9, 30 °C
T4 construct: recombinant from HighFive insect cells, prepared as described previously; monomer
T4 sequence (Q12386 1-881): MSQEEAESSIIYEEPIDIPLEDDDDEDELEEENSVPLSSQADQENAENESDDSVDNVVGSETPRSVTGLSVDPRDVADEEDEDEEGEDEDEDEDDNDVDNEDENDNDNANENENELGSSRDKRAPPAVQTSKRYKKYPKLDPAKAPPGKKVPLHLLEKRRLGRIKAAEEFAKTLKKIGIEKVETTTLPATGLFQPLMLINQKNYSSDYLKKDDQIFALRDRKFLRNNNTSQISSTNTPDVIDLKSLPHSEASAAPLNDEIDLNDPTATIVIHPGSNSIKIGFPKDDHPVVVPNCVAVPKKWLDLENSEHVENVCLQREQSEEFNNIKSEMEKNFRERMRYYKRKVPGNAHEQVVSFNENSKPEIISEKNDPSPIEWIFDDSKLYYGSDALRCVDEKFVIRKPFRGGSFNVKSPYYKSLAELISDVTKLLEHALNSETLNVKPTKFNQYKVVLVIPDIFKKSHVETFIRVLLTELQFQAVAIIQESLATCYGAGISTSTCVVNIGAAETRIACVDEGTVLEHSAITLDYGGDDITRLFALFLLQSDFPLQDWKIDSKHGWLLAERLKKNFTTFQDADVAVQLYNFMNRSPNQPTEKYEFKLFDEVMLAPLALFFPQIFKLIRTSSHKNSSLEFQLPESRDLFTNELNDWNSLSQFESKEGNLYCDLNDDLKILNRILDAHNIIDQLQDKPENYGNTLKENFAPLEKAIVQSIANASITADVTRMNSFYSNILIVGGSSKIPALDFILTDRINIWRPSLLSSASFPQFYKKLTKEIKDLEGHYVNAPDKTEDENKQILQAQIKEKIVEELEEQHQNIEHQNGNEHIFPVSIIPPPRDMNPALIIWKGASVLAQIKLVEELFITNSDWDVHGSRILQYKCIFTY

T1 sequence (Q9H981 whole entry): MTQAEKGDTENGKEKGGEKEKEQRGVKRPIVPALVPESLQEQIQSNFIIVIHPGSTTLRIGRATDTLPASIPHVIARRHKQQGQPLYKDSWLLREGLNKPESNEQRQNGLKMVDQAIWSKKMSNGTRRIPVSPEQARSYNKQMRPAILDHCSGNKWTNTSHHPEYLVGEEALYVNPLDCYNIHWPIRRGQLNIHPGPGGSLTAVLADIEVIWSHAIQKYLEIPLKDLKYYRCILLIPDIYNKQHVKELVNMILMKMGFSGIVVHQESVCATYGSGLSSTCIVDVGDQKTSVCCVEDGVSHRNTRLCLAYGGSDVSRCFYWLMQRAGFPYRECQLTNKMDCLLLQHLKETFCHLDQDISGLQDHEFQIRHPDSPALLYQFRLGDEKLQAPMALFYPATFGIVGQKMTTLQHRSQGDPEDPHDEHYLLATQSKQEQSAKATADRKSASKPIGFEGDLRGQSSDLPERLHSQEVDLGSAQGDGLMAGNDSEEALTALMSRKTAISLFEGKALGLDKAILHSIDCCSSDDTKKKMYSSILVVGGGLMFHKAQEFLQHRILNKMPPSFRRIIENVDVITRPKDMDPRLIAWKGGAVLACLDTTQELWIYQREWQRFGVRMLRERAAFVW
T3 sequence (Q9H981 34-624, stated change not applied): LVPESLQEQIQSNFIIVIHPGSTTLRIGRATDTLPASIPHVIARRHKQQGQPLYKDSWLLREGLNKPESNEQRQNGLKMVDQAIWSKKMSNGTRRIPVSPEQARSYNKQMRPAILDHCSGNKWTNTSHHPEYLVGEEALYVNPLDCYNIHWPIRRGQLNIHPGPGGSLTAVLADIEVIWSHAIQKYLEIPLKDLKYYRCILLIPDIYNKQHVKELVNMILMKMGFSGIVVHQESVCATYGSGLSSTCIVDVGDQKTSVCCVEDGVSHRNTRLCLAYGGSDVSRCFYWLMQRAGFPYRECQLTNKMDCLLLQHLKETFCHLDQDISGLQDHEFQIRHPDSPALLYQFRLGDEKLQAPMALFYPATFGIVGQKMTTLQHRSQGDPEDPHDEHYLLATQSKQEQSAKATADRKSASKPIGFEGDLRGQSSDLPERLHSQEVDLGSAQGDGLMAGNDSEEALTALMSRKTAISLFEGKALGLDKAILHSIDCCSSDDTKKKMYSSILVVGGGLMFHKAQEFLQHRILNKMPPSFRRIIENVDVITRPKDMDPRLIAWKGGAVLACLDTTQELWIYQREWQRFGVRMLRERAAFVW

## Nc1ncnc2c1ncn2[C@@H]1O[C@H](COP(=O)(O)OP(=O)(O)OP(=O)(O)O)[C@@H](O)[C@H]1O [ATP]
Human Arp8
  low basal ATPase activity: yeast and human Arp8 possess a low basal ATPase activity
[1]
  low basal ATPase activity: sub-complex I (Arp8–Arp4–actin-HSA) also shows a low basal ATPase activity
[2]
  X-ray crystal structure, 2.6 Å: Electron density in the nucleotide-binding cleft of actin could clearly be assigned to ATP
Yeast Arp8
  low basal ATPase activity: yeast and human Arp8 possess a low basal ATPase activity
